Experimental findings from the supplement of paper PMC10307832 are described below.

Common to all, as to assay: relative viability (nuclei count vs DMSO), 5 days (fraction); higher = more cells survive
Compound in experiment [1]: C=CC(=O)N1CCC[C@@H](n2nc(-c3ccc(Oc4ccccc4)cc3)c3c(N)ncnc32)C1 [Ibrutinib] + O=C(c1cc(Cc2n[nH]c(=O)c3ccccc23)ccc1F)N1CCN(C(=O)C2CC2)CC1 [Olaparib] (partner 8 µM)
A digest of the protocol: (§1)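 Relative viability divides the nuclei count in treated wells by that in vehicle wells. Lung cancer cell lines were seeded in 1536-well plates, dosed by pin tool the next day, and fixed and stained after 5 days in one step with final 0.05% Triton X-100, 1% formaldehyde and 1 ug/ml Hoechst. Dosing was a single drug or a fixed anchor-drug dose plus five library-drug doses (not always all listed) in √10 steps, and values are medians of duplicate plates imaged at 4×.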

Compound in experiment [2]: C=CC(=O)N1CCC[C@@H](n2nc(-c3ccc(Oc4ccccc4)cc3)c3c(N)ncnc32)C1 [Ibrutinib] + COc1cccc2cc(-c3nc([C@H]4CC[C@H](C(=O)O)CC4)n4ncnc(N)c34)[nH]c12 [OSI-027] (partner 0.5 µM)
In outline:
as §1

Compound in experiment [3]: C=CC(=O)N1CCC[C@@H](n2nc(-c3ccc(Oc4ccccc4)cc3)c3c(N)ncnc32)C1 [Ibrutinib] + CC(=O)Nc1cccc(-n2c(=O)n(C3CC3)c(=O)c3c(Nc4ccc(I)cc4F)n(C)c(=O)c(C)c32)c1 [Trametinib] (partner 0.02 µM)
A digest of the protocol: as §1

On to SK-MES-1, for which the relative viability was found to be 0.748 in experiment [1] (first compound 0.005 µM); 0.639 in experiment [1] (first compound 0.01581 µM); 0.652 in experiment [1] (first compound 0.05 µM); 0.879 in experiment [1] (first compound 0.1581 µM); 0.461 in experiment [1] (first compound 0.5 µM); 0.584 in experiment [2] (first compound 0.005 µM). Further, the relative viability came out at 0.568 in experiment [2] (first compound 0.01581 µM); 0.584 in experiment [2] (first compound 0.05 µM); 0.687 in experiment [2] (first compound 0.1581 µM); 0.357 in experiment [2] (first compound 0.5 µM); 0.591 in experiment [3] (first compound 0.005 µM); 0.467 in experiment [3] (first compound 0.01581 µM). Further, the relative viability was 0.36 in experiment [3] (first compound 0.05 µM), 0.611 in experiment [3] (first compound 0.1581 µM) and 0.297 in experiment [3] (first compound 0.5 µM).
